Measured values from patent US12116357B2, “Heteroaryl-triazole and heteroaryl-tetrazole compounds as pesticides” (Bayer Aktiengesellschaft, priority 2018, dated 2024).
Blank lines part the entries; values can stand above or below the compound they belong to.

Legend:
[1] = log P by HPLC on reversed phase columns (EEC directive 79/831 Annex V.A8); assay type: physicochemical; conditions: reversed phase HPLC column, LC-UV, neutral range, 0.001 molar ammonium acetate in water and acetonitrile (table footnote); read-out: LogP^[a]
Myzus persicae = Myzus persicae oral test; assay type: in vivo; conditions: 120 h
Protocol: • Solvent: 100 parts by weight acetone
To produce a suitable preparation of active compound, 1 part by weight of active compound is mixed with the stated amount of solvent, and the concentrate is diluted with water to the desired concentration. 50 μl compound solution is filled in microtiter plates and 150 μl IPL41 insect medium (33%+15% sugar) is added to obtain a total volume of 200 μl per well. Afterwards the plates are sealed with parafilm through which a mixed population of the green peach aphid (Myzus persicae) can suck on the compound preparation.
After 5 days mortality in % is determined. 100% means all aphids have been killed and 0% means none of the aphids have been killed.

Boophilus microplus = Boophilus microplus injection test; assay type: in vivo; conditions: Rhipicephalus microplus, 168 h, 20 μg/animal, egg deposition after 7 days, read-out: efficacy (infertile eggs)
Protocol: (§1) • Solvent: dimethyl sulfoxide
To produce a suitable preparation of active compound, 10 mg of active compound are dissolved in 0.5 ml solvent, and the concentrate is diluted with solvent to the desired concentration.
Five adult engorged female ticks (Boophilus microplus) are injected with 1 μl compound solution into the abdomen. The ticks are transferred into replica plates and incubated in a climate chamber.
After 7 days egg deposition of fertile eggs is monitored. Eggs where fertility is not visible are stored in a climate chamber till hatching after about 42 days. An efficacy of 100% means all eggs are infertile; 0% means all eggs are fertile.

Phaedon cochleariae = Phaedon cochleariae spray test; assay type: in vivo; conditions: 168 h, after 7 days
Protocol: (§2) • Solvent: 78.0 parts by weight of acetone • 1.5 parts by weight of dimethylformamide • Emulsifier: alkylarylpolyglycol ether
(§3) To produce a suitable preparation of active compound, 1 part by weight of active compound is mixed with the stated amount of solvents and is diluted with water, containing an emulsifier concentration of 1000 ppm, to the desired concentration. Further test concentrations are prepared by dilution with emulsifier containing water.
Chinese cabbage (Brassica pekinensis) leaf disks are sprayed with a preparation of the active ingredient of the desired concentration. Once dry, the leaf disks are infested with mustard beetle larvae (Phaedon cochleariae).
After 7 days mortality in % is determined. 100% means all beetle larvae have been killed and 0% means none of the beetle larvae have been killed.

Spodoptera frugiperda = Spodoptera frugiperda spray test; assay type: in vivo; conditions: 168 h
Protocol: • Solvent: 78.0 parts by weight acetone • 1.5 parts by weight dimethylformamide • Emulsifier: alkylarylpolyglycol ether
as §3
Maize (Zea mays) leaf sections are sprayed with a preparation of the active ingredient of the desired concentration. Once dry, the leaf sections are infested with fall armyworm larvae (Spodoptera frugiperda).
After 7 days mortality in % is determined. 100% means all caterpillars have been killed and 0% means none of the caterpillars have been killed.

Ctenocephalides felis = Ctenocephalides felis oral test; assay type: in vivo; conditions: 48 h, 100 ppm in cattle blood, after 2 days
Protocol: as §1
To produce a suitable preparation of active compound, 10 mg of active compound are dissolved in 0.5 ml solvent, and the concentrate is diluted with cattle blood to the desired concentration.
Approximately 20 adult unfed cat fleas (Ctenocephalides felis) are placed in flea chambers. The blood chamber, sealed with parafilm on the bottom, are filled with cattle blood supplied with compound solution and placed on the gauze covered top of the flea chamber, so that the fleas are able to suck the blood. The blood chamber is heated to 37° C. whereas the flea chamber is kept at room temperature.
After 2 days mortality in % is determined. 100% means all the fleas have been killed; 0% means none of the fleas have been killed.

[2] = tested on: Aedes aegypti strain MONHEIM; experiment: Aedes aegypti test (surface treatment & contact assay); assay type: in vivo; conditions: surface concentration 20 mg/m^2, 30 min exposure, 24 hours after contact, read-out: efficacy (mortality)
Protocol: • Solvent: Aceton+2000 ppm rapeseed oil methyl ester (RME)
In order to produce a sufficient, active ingredient containing solution it is necessary to solve the test compound in the solvent-mix (acetone at 2 mg/ml/RME 2000 ppm). This solution is pipetted onto a glazed tile and after evaporation of the acetone, adult mosquitoes of the species Aedes aegypti strain MONHEIM are placed onto the dried surface. The exposure time is 30 minutes.
Mortality in percent (%) is determined 24 hours after contact of the insects to the treated surface. 100% mortality means that all tested insects are dead, whereas 0% means that no insect died.

Nezara viridula = Nezara viridula spray test; assay type: in vivo; conditions: 96 h
Protocol: as §2
as §3, with “solvent,” for “solvents”, “and the concentrate” for “and”
Barley plants (Hordeum vulgare) infested with larvae of the southern green stink bug (Nezara viridula) are sprayed with a test solution containing the desired concentration of the active ingredient.
After 4 days mortality in % is determined. 100% means all the stink bugs have been killed; 0% means none of the stink bugs have been killed.

Nilaparvata lugens = Nilaparvata lugens spray test; assay type: in vivo; conditions: 96 h
Protocol: as §2, §3
Rice plants (Oryza sativa) are sprayed with a preparation of the active ingredient of the desired concentration and the plants are infested with the brown planthopper (Nilaparvata lugens).
After 4 days mortality in % is determined. 100% means all planthoppers have been killed and 0% means none of the planthoppers have been killed.

chromatographic logP [1]: 0.85
SMILES: CC(NCC1CCOCC1)c1ncnn1-c1ncccn1 (stereo not shown) [a-003]

chromatographic logP [1]: 1.62
SMILES: CC(NCCc1ccc(F)cc1)c1ncnn1-c1ncccn1 (stereo not shown) [a-009]

chromatographic logP [1]: 0.75
SMILES: CC(NC1CC1)c1ncnn1-c1ncccn1 (stereo not shown) [a-002]

chromatographic logP [1]: 1.41
SMILES: COc1ccc(CNC(C)c2ncnn2-c2ncccn2)cc1 (stereo not shown) [a-020]

chromatographic logP [1]: 0.51
SMILES: CC(NCC1CS(=O)(=O)C1)c1ncnn1-c1ncccn1 (stereo not shown) [a-008]

chromatographic logP [1]: 1.35
SMILES: CC(NCc1ccc(C#N)cc1)c1ncnn1-c1ncccn1 (stereo not shown) [a-018]

SMILES: CC(c1ncnn1-c1ncccn1)N(CC1CCCO1)C(=O)c1cc(Cl)cc(C(F)(F)F)c1 (stereo not shown) [Example I-012]
mortality at 20 ppm (Myzus persicae): 100%

chromatographic logP [1]: 2.51
SMILES: CC(NCCSC(F)(F)F)c1ncnn1-c1ccc(C#N)cn1 (stereo not shown) [a-026]

chromatographic logP [1]: 0.87
SMILES: CC(NC1CSC1)c1ncnn1-c1ncccn1 (stereo not shown) [a-023]

chromatographic logP [1]: 1.12
SMILES: CC(NCC1CSC1)c1ncnn1-c1ncccn1 (stereo not shown) [a-007]

SMILES: CC(c1ncnn1-c1ncccn1)N(CC1CCOC1)C(=O)c1cc(Cl)cc(C(F)(F)F)c1 (stereo not shown) [Example I-015]
pest or weed control at 0.02 mg (Boophilus microplus): 100%
mortality at 20 ppm (Myzus persicae): 100%
mortality at 500 g/ha (Phaedon cochleariae): 100%
mortality at 500 g/ha (Spodoptera frugiperda): 100%
mortality at 100 ppm (Ctenocephalides felis): 100%

SMILES: CC(c1ncnn1-c1ncccn1)N(CC1(c2ccccc2)CC1)C(=O)c1cc(Cl)cc(C(F)(F)F)c1 (stereo not shown) [Example I-006]
mortality at 20 ppm (Myzus persicae): 90%
mortality at 500 g/ha (Phaedon cochleariae): 100%
mortality at 500 g/ha (Spodoptera frugiperda): 100%
mortality at 100 ppm (Ctenocephalides felis): 100%
mortality at 20 mg/m2 [2]: 90 to 100%

SMILES: CC(c1ncnn1-c1ncccn1)N(CC1CCOCC1)C(=O)c1cc(Cl)cc(C(F)(F)F)c1 (stereo not shown) [Example I-008]
mortality at 20 ppm (Myzus persicae): 100%
mortality at 500 g/ha (Phaedon cochleariae): 100%

chromatographic logP [1]: 0.52
SMILES: COCCNC(C)c1ncnn1-c1ncccn1 (stereo not shown) [a-006]

chromatographic logP [1]: 1.67
SMILES: CC(NCC1CCCC1)c1ncnn1-c1ncccn1 (stereo not shown) [a-004]

chromatographic logP [1]: 0.38
SMILES: CC(NCc1ncccn1)c1ncnn1-c1ncccn1 (stereo not shown) [a-011]

SMILES: CC(c1ncnn1-c1ncccn1)N(Cc1ccncc1)C(=O)c1cc(Cl)cc(C(F)(F)F)c1 (stereo not shown) [Example I-014]
pest or weed control at 0.02 mg (Boophilus microplus): 100%
mortality at 4 ppm (Myzus persicae): 100%
mortality at 20 ppm (Myzus persicae): 100%
mortality at 500 g/ha (Phaedon cochleariae): 100%
mortality at 500 g/ha (Spodoptera frugiperda): 100%
mortality at 100 ppm (Ctenocephalides felis): 100%
mortality at 500 g/ha (Nezara viridula): 100%
mortality at 500 g/ha (Nilaparvata lugens): 100%

chromatographic logP [1]: 0.92
SMILES: CSCCNC(C)c1ncnn1-c1ncccn1 (stereo not shown) [a-017]
